Measurements published in publication PMC11003488 (Journal of Enzyme Inhibition and Medicinal Chemistry, 2023).

Experiments:
[1] = test system: NCI 60-cell line panel (full panel); assay: NCI-60 SRB growth inhibition, full panel mean / MG-MID; format: cell-based, human; conditions: mean over NCI-60 panel; single dose 10 µM
COLO 205 = assay: NCI-60 SRB growth inhibition, one-dose and five-dose; format: cell-based; conditions: Homo sapiens, COLO 205, read-out: percent growth inhibition
HL-60(TB) = assay: cells; format: cell-based; conditions: Homo sapiens, HL-60, read-out: percent growth inhibition
UACC-257 = assay: NCI-60 SRB growth inhibition, one-dose and five-dose; format: cell-based; conditions: Homo sapiens, UACC-257, read-out: percent growth inhibition
SF-539 = assay: as above; format: cell-based; conditions: Homo sapiens, SF-539, read-out: percent growth inhibition
HCT-15 = assay: as above; format: cell-based; conditions: Homo sapiens, HCT-15, read-out: percent growth inhibition
MOLT-4 = assay: as above; format: cell-based; conditions: Homo sapiens, MOLT-4, read-out: percent growth inhibition
SF-295 = assay: as above; format: cell-based; conditions: Homo sapiens, SF-295, read-out: percent growth inhibition
SNB-19 = assay: as above; format: cell-based; conditions: Homo sapiens, SNB-19, read-out: percent growth inhibition
HCT-116 = assay: as above; format: cell-based; conditions: Homo sapiens, HCT-116, read-out: percent growth inhibition
OVCAR-5 = assay: as above; format: cell-based; conditions: Homo sapiens, OVCAR-5, read-out: percent growth inhibition
RXF 393 = assay: as above; format: cell-based; conditions: Homo sapiens, RXF 393, read-out: percent growth inhibition
OVCAR-4 = assay: as above; format: cell-based; conditions: Homo sapiens, OVCAR-4, read-out: percent growth inhibition
HS 578 T = assay: as above; format: cell-based; conditions: Homo sapiens, read-out: percent growth inhibition
IGROV1 = assay: as above; format: cell-based; conditions: Homo sapiens, IGROV-1, read-out: percent growth inhibition
OVCAR-3 = assay: as above; format: cell-based; conditions: Homo sapiens, OVCAR-3, read-out: percent growth inhibition

CC(=O)Nc1ccc(CNc2cccc(C(=O)/C=C/c3c[nH]cn3)c2)cc1 [Compound 5l, (E)-N-(4-(((3–(3-(1H-imidazol-4-yl)acryloyl)phenyl)amino)methyl)phenyl)acetamide] was tested. Which “Full panel Mean GI %” value [1] did it give?
The value was 24.10%.

What about the inhibition at 10 µM (COLO 205) of the same compound?
Its inhibition at 10 µM is -8.23%.

And the inhibition at 10 µM (HL-60(TB))?
Its inhibition at 10 µM is 65.2%.

And the inhibition at 10 µM (UACC-257)?
Its inhibition at 10 µM is 19.3%.

And the inhibition at 10 µM (SF-539)?
Its inhibition at 10 µM is 14.1%.

And the inhibition at 10 µM (HCT-15)?
Its inhibition at 10 µM is 14.3%.

And the inhibition at 10 µM (MOLT-4)?
The inhibition at 10 µM was 40.3%.

And the inhibition at 10 µM (SF-295)?
The inhibition at 10 µM was -1.21%.

What about the inhibition at 10 µM (SNB-19) of the same compound?
Its inhibition at 10 µM is 26.6%.

And the inhibition at 10 µM (HCT-116)?
Its inhibition at 10 µM is 29.4%.

What about the inhibition at 10 µM (OVCAR-5) of the same compound?
The inhibition at 10 µM was 5.08%.

And the inhibition at 10 µM (RXF 393)?
Its inhibition at 10 µM is 37.7%.

What about the inhibition at 10 µM (OVCAR-4) of the same compound?
Its inhibition at 10 µM is 17.3%.

And the inhibition at 10 µM (HS 578 T)?
The inhibition at 10 µM was 7.6%.

What about the inhibition at 10 µM (IGROV1) of the same compound?
Its inhibition at 10 µM is 8.09%.

What about the inhibition at 10 µM (OVCAR-3) of the same compound?
The inhibition at 10 µM was 33.8%.

What does the source list for O=C(/C=C/c1c[nH]cn1)c1cccc(NCc2ccc(CO)cc2)c1 [Compound 5m, (E)-1–(3-((4-(hydroxymethyl)benzyl)amino)phenyl)-3-(1H-imidazol-4-yl)prop-2-en-1-one]?
Full panel Mean GI % [1]: 25.19%; inhibition at 10 µM (COLO 205): -0.06%; inhibition at 10 µM (HL-60(TB)): 65.9%; inhibition at 10 µM (UACC-257): 22.5%; inhibition at 10 µM (SF-539): 11%; inhibition at 10 µM (HCT-15): 21.5%; inhibition at 10 µM (MOLT-4): 28.5%; inhibition at 10 µM (SF-295): 4.92%; inhibition at 10 µM (SNB-19): 16.8%; inhibition at 10 µM (HCT-116): 36.5%; inhibition at 10 µM (OVCAR-5): -1.46%; inhibition at 10 µM (RXF 393): 38.3%; inhibition at 10 µM (OVCAR-4): 22%; inhibition at 10 µM (HS 578 T): 4.31%; inhibition at 10 µM (IGROV1): 9.93%; inhibition at 10 µM (OVCAR-3): 5.3%

What does the source list for O=C(/C=C/c1c[nH]cn1)c1cccc(NCc2ccc3oc(=O)ccc3c2)c1 [Compound 5n, (E)-6-(((3–(3-(1H-imidazol-4-yl)acryloyl)phenyl)amino)methyl)-2H-chromen-2-one]?
Full panel Mean GI % [1]: 37.53%; inhibition at 10 µM (COLO 205): 29.2%; inhibition at 10 µM (HL-60(TB)): 85.4%; inhibition at 10 µM (UACC-257): 43.6%; inhibition at 10 µM (SF-539): 14.8%; inhibition at 10 µM (HCT-15): 33.9%; inhibition at 10 µM (MOLT-4): 61.1%; inhibition at 10 µM (SF-295): 12.6%; inhibition at 10 µM (SNB-19): 25.7%; inhibition at 10 µM (HCT-116): 58.1%; inhibition at 10 µM (OVCAR-5): 10.4%; inhibition at 10 µM (RXF 393): 38.5%; inhibition at 10 µM (OVCAR-4): 39.2%; inhibition at 10 µM (HS 578 T): 13.6%; inhibition at 10 µM (IGROV1): 16.6%; inhibition at 10 µM (OVCAR-3): 13.8%
